Laboratory results from patent US9265253B2, “Use of macrocyclic picolinamides as fungicides” (DOW AGROSCIENCES LLC, priority 2013, dated 2016).
Like-named read-outs stand apart in the source and are kept apart here.

What was measured:
Type in all cases: in vivo
[1] = tested on: Glomerella lagenarium; Anamorph: Colletotrichum lagenarium; experiment: Cucumber Anthracnose (COLLLA) disease control; conditions: 1 Day Protectant; for pest or weed control at 100 ppm: Colletotrichum orbiculare, topical, 24 h, read-out: Disease Control COLLLA 1 DP
Method: Technical grades of materials were dissolved in acetone, which were then mixed with nine volumes of water containing 110 ppm Triton X-100. The fungicide solutions were applied onto wheat seedlings using an automated booth sprayer to run-off. All sprayed plants were allowed to air dry prior to further handling. All fungicides were evaluated using the aforementioned method for their activity vs. all target diseases. Wheat leaf blotch and brown rust activity were also evaluated using track spray applications, in which case the fungicides were formulated as EC formulations, containing 0.1% Trycol 5941 in the spray solutions. Wheat plants (variety Yuma) were grown from seed in a greenhouse in 50% mineral soil/50% soil-less Metro mix until the first leaf was fully emerged, with 7-10 seedlings per pot. These plants were inoculated with an aqueous spore suspension of Septoria tritici either prior to or after fungicide treatments. After inoculation the plants were kept in 100% relative humidity (one day in a dark dew chamber followed by two to three days in a lighted dew chamber at 20° C.) to permit spores to germinate and infect the leaf. The plants were then transferred to a greenhouse set at 20° C. for disease to develop. When disease symptoms were fully expressed on the 1st leaves of untreated plants, infection levels were assessed on a scale of 0 to 100 percent disease severity. Percent disease control was calculated using the ratio of disease severity on treated plants relative to untreated plants. Cucumber seedlings (variety Bush Pickle) were propagated in soil-less Metro mix, with each pot having one plant, and used in the test when 12 to 14 days old. Test plants were inoculated with an aqueous spore suspension of Colletotrichum lagenarium 24 hr after fungicide treatments. After inoculation the plants were kept in a dew room at 22° C. with 100% relative humidity for 48 hr to permit spores to germinate and infect the leaf. The plants were then transferred to a growth room set at 22° C. for disease to develop. Fungicide formulation, application and disease assessment on the sprayed leaves followed the procedures as described in the Example A.

[2] = tested on: Cercospora beticola; experiment: Leaf Spot of Sugar Beets (CERCBE) disease control; conditions: 1 Day Protectant, sugar beet; for pest or weed control at 100 ppm: Cercospora beticola, topical, 24 h, read-out: Disease Control CERCBE 1 DP
Method: Technical grades of materials were dissolved in acetone, which were then mixed with nine volumes of water containing 110 ppm Triton X-100. The fungicide solutions were applied onto wheat seedlings using an automated booth sprayer to run-off. All sprayed plants were allowed to air dry prior to further handling. All fungicides were evaluated using the aforementioned method for their activity vs. all target diseases. Wheat leaf blotch and brown rust activity were also evaluated using track spray applications, in which case the fungicides were formulated as EC formulations, containing 0.1% Trycol 5941 in the spray solutions. Wheat plants (variety Yuma) were grown from seed in a greenhouse in 50% mineral soil/50% soil-less Metro mix until the first leaf was fully emerged, with 7-10 seedlings per pot. These plants were inoculated with an aqueous spore suspension of Septoria tritici either prior to or after fungicide treatments. After inoculation the plants were kept in 100% relative humidity (one day in a dark dew chamber followed by two to three days in a lighted dew chamber at 20° C.) to permit spores to germinate and infect the leaf. The plants were then transferred to a greenhouse set at 20° C. for disease to develop. When disease symptoms were fully expressed on the 1st leaves of untreated plants, infection levels were assessed on a scale of 0 to 100 percent disease severity. Percent disease control was calculated using the ratio of disease severity on treated plants relative to untreated plants. Sugar beet plants (variety HH88) were grown in soil-less Metro mix and trimmed regularly to maintain a uniform plant size prior to test. Plants were inoculated with a spore suspension 24 hr after fungicide treatments. Inoculated plants were kept in a dew chamber at 22° C. for 48 hr then incubated in a greenhouse set at 24° C. under a clear plastic hood with bottom ventilation until disease symptoms were fully expressed. Fungicide formulation, application and disease assessment on the sprayed leaves followed the procedures as described in the Example A.

[3] = tested on: Uncinula necator; experiment: Grape Powdery Mildew (UNCINE) disease control; conditions: 1 Day Protectant; for pest or weed control at 100 ppm: Erysiphe necator, topical, 24 h, read-out: Disease Control UNCINE 1 DP
Method: Technical grades of materials were dissolved in acetone, which were then mixed with nine volumes of water containing 110 ppm Triton X-100. The fungicide solutions were applied onto wheat seedlings using an automated booth sprayer to run-off. All sprayed plants were allowed to air dry prior to further handling. All fungicides were evaluated using the aforementioned method for their activity vs. all target diseases. Wheat leaf blotch and brown rust activity were also evaluated using track spray applications, in which case the fungicides were formulated as EC formulations, containing 0.1% Trycol 5941 in the spray solutions. Wheat plants (variety Yuma) were grown from seed in a greenhouse in 50% mineral soil/50% soil-less Metro mix until the first leaf was fully emerged, with 7-10 seedlings per pot. These plants were inoculated with an aqueous spore suspension of Septoria tritici either prior to or after fungicide treatments. After inoculation the plants were kept in 100% relative humidity (one day in a dark dew chamber followed by two to three days in a lighted dew chamber at 20° C.) to permit spores to germinate and infect the leaf. The plants were then transferred to a greenhouse set at 20° C. for disease to develop. When disease symptoms were fully expressed on the 1st leaves of untreated plants, infection levels were assessed on a scale of 0 to 100 percent disease severity. Percent disease control was calculated using the ratio of disease severity on treated plants relative to untreated plants. Grape seedlings (variety Carignane) were grown in soil-less Metro mix, with one plant per pot, and used in the test when approximately one month old. Plants were inoculated 24 hr after fungicide treatment by shaking spores from infected leaves over test plants. Plants were maintained in a greenhouse set at 20° C. until disease was fully developed. Fungicide formulation, application and disease assessment on the sprayed leaves followed the procedures as described in the Example A.

[4] = tested on: Magnaporthe grisea; Anamorph: Pyricularia oryzae; experiment: whole plant or invertebrate; conditions: for pest or weed control at 100 ppm: Pyricularia oryzae, topical, 24 h, read-out: Disease Control PYRIOR 1 DP
[5] = tested on: Phakopsora pachyrhizi; experiment: Asian Soybean Rust (PHAKPA) disease control; conditions: for pest or weed control at 25 ppm: Phakopsora pachyrhizi, topical
Method: Technical grades of materials were dissolved in acetone, which were then mixed with nine volumes of water containing 0.011% Tween 20. The fungicide solutions were applied onto soybean seedlings using an automated booth sprayer to run-off. All sprayed plants were allowed to air dry prior to further handling.
Soybean plants (variety Williams 82) were grown in soil-less Metro mix, with one plant per pot. Two weeks old seedlings were used for testing. Plants were inoculated either 3 days prior to or 1 day after fungicide treatments. Plants were incubated for 24 h in a dark dew room at 22° C. and 100% RH then transferred to a growth room at 23° C. for disease to develop. Disease severity was assessed on the sprayed leaves.

[6] = 24 h, 1 Day Protectant, read-out: Disease Control PHAKPA 1DP
[7] = 72 h, 3 Day Curative, read-out: Disease Control PHAKPA 3DC

Compound | pest or weed control at 100 ppm [1] [%] | pest or weed control at 100 ppm [2] [%] | pest or weed control at 100 ppm [3] [%] | pest or weed control at 100 ppm [4] [%] | pest or weed control at 25 ppm [5, 6] [%] | pest or weed control at 25 ppm [5, 7] [%] | Disease Control COLLLA 1 DP ([1]; 100 ppm) | Disease Control CERCBE 1 DP ([2]; 100 ppm) | Disease Control UNCINE 1 DP ([3]; 100 ppm) | Disease Control PYRIOR 1 DP ([4]; 100 ppm, 1 Day Protectant, Rice Blast) | Disease Control PHAKPA 1DP ([5]; 25 ppm, 1 Day Protectant) | Disease Control PHAKPA 3DC ([5]; 25 ppm, 3 Day Curative)
CCCO[C@@H]1[C@@H](CCC(C)C)CCC[C@H](NC(=O)c2nccc(OC)c2OCOC(=O)COCC)C(=O)O[C@H]1C [Compound F161] | 80 to 100 | 80 to 100 | 80 to 100 | 80 to 100 | 80 to 100 | 80 to 100 |  |  |  |  |  | 
CCCO[C@@H]1[C@@H](Cc2ccccc2)CCC[C@H](NC(=O)c2nccc(OC)c2OCOC(C)=O)C(=O)O[C@H]1C [Compound F109] | 80 to 100 | 80 to 100 | 80 to 100 | 80 to 100 | 80 to 100 | 0 to 80 |  |  |  |  |  | 
CCOCC(=O)OCOc1c(OC)ccnc1C(=O)N[C@H]1CCC[C@H](Cc2ccc(F)cc2)[C@@H](OCC2CC2)[C@H](C)OC1=O [Compound F164] | 80 to 100 | 80 to 100 | 80 to 100 | 80 to 100 | 80 to 100 | 0 to 80 |  |  |  |  |  | 
CCCO[C@@H]1[C@@H](Cc2ccc(F)cc2)CCC[C@H](NC(=O)c2nccc(OC)c2OCOC(C)=O)C(=O)O[C@H]1C [Compound F101] | 80 to 100 | 80 to 100 | 80 to 100 | 80 to 100 | 80 to 100 | 0 to 80 |  |  |  |  |  | 
CCOCC(=O)OCOc1c(OC)ccnc1C(=O)N[C@H]1CCC[C@H](Cc2ccccc2)[C@@H](OCC2CC2)[C@H](C)OC1=O [Compound F173] | 80 to 100 | 80 to 100 | 0 to 80 | 80 to 100 | 80 to 100 | 80 to 100 |  |  |  |  |  | 
CCOCC(=O)OCOc1c(OC)ccnc1C(=O)N[C@H]1CCC[C@H](CCF)[C@@H](OCC(C)C)[C@H](C)OC1=O [Compound F181] | 80 to 100 | 0 to 80 | 0 to 80 | 80 to 100 | 80 to 100 | 80 to 100 |  |  |  |  |  | 
CCCO[C@@H]1[C@@H](Cc2ccccc2)CCC[C@H](NC(=O)c2nccc(OC)c2OCOC(=O)COCC)C(=O)O[C@H]1C [Compound F174] | 80 to 100 | 80 to 100 | 80 to 100 | 80 to 100 | 80 to 100 | 0 to 80 |  |  |  |  |  | 
COc1ccnc(C(=O)N[C@H]2CCC[C@H](Cc3ccccc3)[C@@H](OCC(C)C)[C@H](C)OC2=O)c1OC(C)=O [Compound F70] | 80 to 100 | 80 to 100 | 80 to 100 | 80 to 100 | 80 to 100 | 0 to 80 |  |  |  |  |  | 
COc1ccnc(C(=O)N[C@H]2CCC[C@H](Cc3ccccc3)[C@@H](OCC3CC3)[C@H](C)OC2=O)c1OCOC(C)=O [Compound F107] | 80 to 100 | 80 to 100 | 0 to 80 | 80 to 100 | 80 to 100 | 80 to 100 |  |  |  |  |  | 
COc1ccnc(C(=O)N[C@H]2CCC[C@H](Cc3ccc(F)cc3)[C@@H](OCC3CC3)[C@H](C)OC2=O)c1OCOC(C)=O [Compound F98] |  |  |  |  |  |  | A (80-100) | A (80-100) | A (80-100) | A (80-100) | A (80-100) | A (80-100)
COc1ccnc(C(=O)N[C@H]2CCC[C@H](CCBr)[C@@H](Oc3ccccc3)[C@H](C)OC2=O)c1OC(C)=O [Compound F80] | 80 to 100 | 80 to 100 | 0 to 80 | 80 to 100 | 80 to 100 | 0 to 80 |  |  |  |  |  | 
CCOCC(=O)OCOc1c(OC)ccnc1C(=O)N[C@H]1CCC[C@H](Cc2ccccc2)[C@@H](OCC(C)C)[C@H](C)OC1=O [Compound F172] | 80 to 100 | 80 to 100 | 0 to 80 | 80 to 100 | 80 to 100 | 0 to 80 |  |  |  |  |  | 
CC[C@H]1CCC[C@H](NC(=O)c2nccc(OC)c2OC(C)=O)C(=O)O[C@@H](C)[C@@H]1Oc1ccccc1 [Compound F81] | 80 to 100 | 80 to 100 | 80 to 100 | 80 to 100 | 80 to 100 | 80 to 100 |  |  |  |  |  | 
COc1ccnc(C(=O)N[C@H]2CCC[C@H](CC3CCCC3)[C@@H](OCC3CC3)[C@H](C)OC2=O)c1OCOC(C)=O [Compound F117] | 80 to 100 | 80 to 100 | 80 to 100 | 80 to 100 | 80 to 100 | 80 to 100 |  |  |  |  |  | 
CCCO[C@@H]1[C@@H](CCC(C)C)CCC[C@H](NC(=O)c2nccc(OC)c2OC(C)=O)C(=O)O[C@H]1C [Compound F64] | 80 to 100 | 80 to 100 | 80 to 100 | 80 to 100 | 80 to 100 | 80 to 100 |  |  |  |  |  | 
